Conditions: Liquid; for speed of sound: non intrusive technique with two piezoelectric transducers based on the time of flight

[2H]C([2H])([2H])C(=O)C([2H])([2H])[2H] [(D6)-2-propanone]
Conditions | mass density [kg/m3] | speed of sound [m/s]
313.21 K, 59100 kPa | 906.07 | –
318.11 K, 100 kPa | 842.15 | –
318.11 K, 5000 kPa | 848.68 | –
318.11 K, 9920 kPa | 854.81 | –
318.11 K, 14840 kPa | 860.56 | –
318.11 K, 19760 kPa | 865.99 | –
318.11 K, 24670 kPa | 871.14 | –
318.11 K, 29590 kPa | 876.06 | –
318.11 K, 34510 kPa | 880.71 | –
318.11 K, 39430 kPa | 885.18 | –
318.11 K, 44340 kPa | 889.44 | –
318.11 K, 49260 kPa | 893.55 | –
318.11 K, 54180 kPa | 897.49 | –
318.11 K, 59100 kPa | 901.28 | –
318.22 K, 100 kPa | – | 991.2
318.22 K, 4980 kPa | – | 1022.9
318.22 K, 10070 kPa | – | 1053.8
318.22 K, 19990 kPa | – | 1109.8
318.22 K, 30040 kPa | – | 1161.1
318.22 K, 40070 kPa | – | 1207.9
318.22 K, 50060 kPa | – | 1250.3
318.22 K, 60010 kPa | – | 1289.3
318.22 K, 70120 kPa | – | 1326.3
318.22 K, 80030 kPa | – | 1360.3
318.22 K, 90090 kPa | – | 1393
318.22 K, 100300 kPa | – | 1424.8
318.22 K, 110120 kPa | – | 1453.2
318.22 K, 120030 kPa | – | 1481
318.22 K, 129970 kPa | – | 1507.9
318.22 K, 140110 kPa | – | 1534.2
318.22 K, 150060 kPa | – | 1558.7
318.22 K, 160060 kPa | – | 1582.6
323.12 K, 100 kPa | 835.37 | –
323.12 K, 5000 kPa | 842.13 | –
323.12 K, 9920 kPa | 848.49 | –
323.12 K, 14840 kPa | 854.44 | –
323.12 K, 19760 kPa | 860.07 | –
323.12 K, 24670 kPa | 865.35 | –
323.12 K, 29590 kPa | 870.38 | –
323.12 K, 34510 kPa | 875.18 | –
323.12 K, 39430 kPa | 879.78 | –
323.12 K, 44340 kPa | 884.16 | –
323.12 K, 49260 kPa | 888.38 | –
323.12 K, 54180 kPa | 892.45 | –
323.12 K, 59100 kPa | 896.36 | –
328 K, 100 kPa | 828.68 | –
328 K, 5000 kPa | 835.72 | –
328 K, 9920 kPa | 842.33 | –
328 K, 14840 kPa | 848.48 | –
328 K, 19760 kPa | 854.24 | –
328 K, 24670 kPa | 859.71 | –
328 K, 29590 kPa | 864.88 | –
328 K, 34510 kPa | 869.82 | –
328 K, 39430 kPa | 874.55 | –
328 K, 44340 kPa | 879.05 | –
328 K, 49260 kPa | 883.39 | –
328 K, 54180 kPa | 887.57 | –
328 K, 59100 kPa | 891.6 | –
328.68 K, 100 kPa | – | 941.9
328.68 K, 5090 kPa | – | 977.6
328.68 K, 10030 kPa | – | 1009.5
328.68 K, 20070 kPa | – | 1068.8
328.68 K, 30010 kPa | – | 1121.9
328.68 K, 40010 kPa | – | 1171.1
328.68 K, 50070 kPa | – | 1215.9
328.68 K, 60000 kPa | – | 1256.7
328.68 K, 70030 kPa | – | 1294.8
328.68 K, 80090 kPa | – | 1330.4
328.68 K, 90100 kPa | – | 1364
328.68 K, 100060 kPa | – | 1396.1
328.68 K, 110140 kPa | – | 1426.4
328.68 K, 120100 kPa | – | 1454.7
328.68 K, 130000 kPa | – | 1481.9
328.68 K, 140020 kPa | – | 1508.4
328.68 K, 150040 kPa | – | 1533.8
328.68 K, 160100 kPa | – | 1557.9
332.91 K, 5000 kPa | 829.26 | –
332.91 K, 9920 kPa | 836.08 | –
332.91 K, 14840 kPa | 842.42 | –
332.91 K, 19760 kPa | 848.36 | –
332.91 K, 24670 kPa | 853.96 | –
332.91 K, 29590 kPa | 859.28 | –
332.91 K, 34510 kPa | 864.37 | –
332.91 K, 39430 kPa | 869.21 | –
332.91 K, 44340 kPa | 873.86 | –
332.91 K, 49260 kPa | 878.33 | –
332.91 K, 54180 kPa | 882.64 | –
332.91 K, 59100 kPa | 886.8 | –
338.72 K, 100 kPa | – | 888.6
338.72 K, 5050 kPa | – | 927.2
338.72 K, 10020 kPa | – | 962.5
338.72 K, 20030 kPa | – | 1025.1
338.72 K, 30050 kPa | – | 1081.4
338.72 K, 40010 kPa | – | 1132.6
338.72 K, 49990 kPa | – | 1179.8
338.72 K, 60050 kPa | – | 1223.2
338.72 K, 70040 kPa | – | 1262.8
338.72 K, 79970 kPa | – | 1299.3
338.72 K, 90070 kPa | – | 1334.7
338.72 K, 100040 kPa | – | 1367.5
338.72 K, 110020 kPa | – | 1398.5
338.72 K, 119960 kPa | – | 1428.5
338.72 K, 130000 kPa | – | 1456.6
338.72 K, 140080 kPa | – | 1484.3
338.72 K, 150050 kPa | – | 1510.5
338.72 K, 159910 kPa | – | 1535.5

Source: the NIST ThermoML archive (doi:10.1016/j.jct.2004.11.001)
